Starred links: 1 amine or outer side, 2 acyl side, 3 side chain; linkers in the order of their positions; H or OH if unused. Positions of bridges follow the written chain, without caps; N, C: chain ends. Non-standard residues stand in square brackets, D forms with d. Residues, ends and D or L forms follow the SMILES beside them. *: point of attachment. dαMeLys(Me) = CN(CCCC[C@@](C)(N[*:1])C(=O)[*:2])[*:3]; dαMeDab = C[C@](CCN[*:3])(N[*:1])C(=O)[*:2]; dPhg(2-OMe) = COc1ccccc1[C@@H](N)C(=O)O; dPhe(3-F) = N[C@H](Cc1cccc(F)c1)C(=O)O; dPhe(4-F) = N[C@H](Cc1ccc(F)cc1)C(=O)O; d1Nal = N[C@H](Cc1cccc2ccccc12)C(=O)O; dPhe(2-F) = N[C@H](Cc1ccccc1F)C(=O)O; dCha = N[C@H](CC1CCCCC1)C(=O)O; dPhg = N[C@@H](C(=O)O)c1ccccc1; Isobutyryl = CC(C)C(=O)*; dDap = NC[C@@H](N)C(=O)O; Ac5c = NC1(C(=O)O)CCCC1; Abu = CC[C@H](N)C(=O)O Where only a bound is given, the exact number is not on record here.

Usually IC50 stands for the point on the concentration scale where inhibition reaches its midpoint. In general, Ki refers to the equilibrium dissociation constant of an inhibitor or competing ligand from its target.

The subject of one assay is MOLM-13 leukemia cells carrying MLL-AF9 fusion. The experiment in a line: cell viability assay (WST-8), MOLM-13. It counts as cell-based. The conditions noted are these: Homo sapiens, MOLM-13, 96 h, read-out: MOLM-13 IC50 (μM). (In general: Formazan colour is commonly taken as a measure of viable cells.)
On to `CC[C@@H]1NC(=O)[C@H](CCCNC(=N)N)NC(=O)[C@](C)(NC(=O)C(C)C)CCNC(=O)[C@@H](CC2CCCCC2)NC1=O` [Cpd. No. 52, N-((3R,6S,9S,12R)-3-(cyclohexylmethyl)-6-ethyl-9-(3-guanidinopropyl)-12-methyl-2,5,8,11-tetraoxo-1,4,7,10-tetraazacyclotetradecan-12-yl)isobutyramide] (Isobutyryl-[dαMeDab]R[Abu][dCha]; lactam 1-C), for which the IC50 was found to be 1.49 µM.

`CC[C@@H]1NC(=O)[C@H](CCCNC(=N)N)NC(=O)[C@](C)(NC(=O)C(C)C)CCNC(=O)[C@@H](Cc2ccccc2F)NC1=O` [Cpd. No. 55, N-((3R,6S,9S,12R)-6-ethyl-3-(2-fluorobenzyl)-9-(3-guanidinopropyl)-12-methyl-2,5,8,11-tetraoxo-1,4,7,10-tetraazacyclotetradecan-12-yl)isobutyramide] (Isobutyryl-[dαMeDab]R[Abu][dPhe(2-F)]; lactam 1-C): the IC50 came out at 3.59 µM.

For `CC[C@@H]1NC(=O)[C@H](CCCNC(=N)N)NC(=O)[C@](C)(NC(=O)C(C)C)CCNC(=O)[C@@H](Cc2cccc(F)c2)NC1=O` [Cpd. No. 56, N-((3R,6S,9S,12R)-6-ethyl-3-(3-fluorobenzyl)-9-(3-guanidinopropyl)-12-methyl-2,5,8,11-tetraoxo-1,4,7,10-tetraazacyclotetradecan-12-yl)isobutyramide] (Isobutyryl-[dαMeDab]R[Abu][dPhe(3-F)]; lactam 1-C), the IC50 amounted to 1.29 µM.

`CC[C@@H]1NC(=O)[C@H](CCCNC(=N)N)NC(=O)[C@](C)(NC(=O)C(C)C)CCNC(=O)[C@@H](Cc2ccc(F)cc2)NC1=O` [Cpd. No. 57, N-((3R,6S,9S,12R)-6-ethyl-3-(4-fluorobenzyl)-9-(3-guanidinopropyl)-12-methyl-2,5,8,11-tetraoxo-1,4,7,10-tetraazacyclotetradecan-12-yl)isobutyramide] (Isobutyryl-[dαMeDab]R[Abu][dPhe(4-F)]; lactam 1-C): the IC50 came to 6.51 µM.

As for `CC[C@@H]1NC(=O)[C@H](CCCNC(=N)N)NC(=O)[C@](C)(NC(=O)C(C)C)CCNC(=O)[C@@H](Cc2cccc3ccccc23)NC1=O` [Cpd. No. 58, N-((3R,6S,9S,12R)-6-ethyl-9-(3-guanidinopropyl)-12-methyl-3-(naphthalen-1-ylmethyl)-2,5,8,11-tetraoxo-1,4,7,10-tetraazacyclotetradecan-12-yl)isobutyramide] (Isobutyryl-[dαMeDab]R[Abu][d1Nal]; lactam 1-C), the IC50 amounted to 2.37 µM.

As for `CC[C@@H]1NC(=O)[C@H](CCCNC(=N)N)NC(=O)[C@](C)(NC(=O)C(C)C)CCNC(=O)[C@@](C)(c2ccccc2)NC1=O` [Cpd. No. 78, N-((3R,6S,9S,12R)-6-ethyl-9-(3-guanidinopropyl)-3,12-dimethyl-2,5,8,11-tetraoxo-3-phenyl-1,4,7,10-tetraazacyclotetradecan-12-yl)isobutyramide], the IC50 is over 10 µM.

On to `CC[C@@H]1NC(=O)[C@H](CCCNC(=N)N)NC(=O)[C@](C)(NC(=O)C(C)C)CCNC(=O)[C@@H](c2cccc3ccccc23)NC1=O` [Cpd. No. 81, N-((3R,6S,9S,12R)-6-ethyl-9-(3-guanidinopropyl)-12-methyl-3-(naphthalen-1-yl)-2,5,8,11-tetraoxo-1,4,7,10-tetraazacyclotetradecan-12-yl)isobutyramide], for which the IC50 was found to be 1.29 µM.

Turning to `CC[C@@H]1NC(=O)[C@H](CCCNC(=N)N)NC(=O)[C@](C)(NC(=O)C(C)C)CCNC(=O)[C@@H](c2ccccc2Cl)NC1=O` [Cpd. No. 83, N-((3R,6S,9S,12R)-3-(2-chlorophenyl)-6-ethyl-9-(3-guanidinopropyl)-12-methyl-2,5,8,11-tetraoxo-1,4,7,10-tetraazacyclotetradecan-12-yl)isobutyramide], the IC50 amounted to 2.6 µM.

For `CC(C)C(=O)N[C@]1(C)CCNC(=O)[C@@H](c2ccccc2)NC(=O)C2(CCCC2)NC(=O)[C@H](CCCNC(=N)N)NC1=O` [Cpd. No. 86, N-((8S,11R,16R)-8-(3-guanidinopropyl)-11-methyl-7,10,15,18-tetraoxo-16-phenyl-6,9,14,17-tetraazaspiro[4.13]octadecan-11-yl)isobutyramide] (Isobutyryl-[dαMeDab]R[Ac5c][dPhg]; lactam 1-C), the IC50 was over 10 µM.

In the case of `CC[C@@H]1NC(=O)[C@H](CCCNC(N)NC)NC(=O)[C@](C)(NC(=O)C(C)C)CCNC(=O)[C@@H](CC2CCCCC2)NC1=O` (stereo partly drawn) [Cpd. No. 87, N-((3R,6S,9S,12R)-9-(3-((amino(methylamino)methyl)amino)propyl)-3-(cyclohexylmethyl)-6-ethyl-12-methyl-2,5,8,11-tetraoxo-1,4,7,10-tetraazacyclotetradecan-12-yl)isobutyramide], the IC50 came out at 0.46 µM.

Regarding `CC[C@@H]1NC(=O)[C@H](CCCNC2=NCC(F)(F)CN2)NC(=O)[C@](C)(NC(=O)C(C)C)CCNC(=O)[C@@H](CC2CCCCC2)NC1=O` [Cpd. No. 95, N-((3R,6S,9S,12R)-3-(cyclohexylmethyl)-9-(3-((5,5-difluoro-1,4,5,6-tetrahydropyrimidin-2-yl)amino)propyl)-6-ethyl-12-methyl-2,5,8,11-tetraoxo-1,4,7,10-tetraazacyclotetradecan-12-yl)isobutyramide], the IC50 is over 10 µM.

Turning to `CC[C@@H]1NC(=O)[C@H](CCCNC2=NCC(C)(C)CN2)NC(=O)[C@](C)(NC(=O)C(C)C)CCNC(=O)[C@@H](CC2CCCCC2)NC1=O` [Cpd. No. 96, N-((3R,6S,9S,12R)-3-(cyclohexylmethyl)-9-(3-((5,5-dimethyl-1,4,5,6-tetrahydxopyrimidin-2-yl)amino)propyl)-6-ethyl-12-methyl-2,5,8,11-tetraoxo-1,4,7,10-tetraazacyclotetradecan-12-yl)isobutyramide], the IC50 is over 10 µM.

Consider `CC[C@@H]1NC(=O)[C@H](CCCNC2=NCC(C)CN2)NC(=O)[C@](C)(NC(=O)C(C)C)CCNC(=O)[C@@H](CC2CCCCC2)NC1=O` (stereo partly drawn) [Cpd. No. 97, N-((3R,6S,9S,12R)-3-(cyclohexylmethyl)-6-ethyl-12-methyl-9-(3-((5-methyl-1,4,5,6-tetrahydropyrimidin-2-yl)amino)propyl)-2,5,8,11-tetraoxo-1,4,7,10-tetraazacyclotetradecan-12-yl)isobutyramide], for which the IC50 was over 10 µM.

With `CC[C@@H]1NC(=O)[C@H](CCCNC(=N)N)NC(=O)[C@](C)(NC(=O)C(C)C)CCNC(=O)[C@@H](c2ccccc2OC)NC1=O` [Cpd. No. 99, N-((3R,6S,9S,12R)-6-ethyl-9-(3-guanidinopropyl)-3-(2-methoxyphenyl)-12-methyl-2,5,8,11-tetraoxo-1,4,7,10-tetraazacyclotetradecan-12-yl)isobutyramide] (Isobutyryl-[dαMeDab]R[Abu][dPhg(2-OMe)]; lactam 1-C), the IC50 was 1.6 µM.

As for `CC[C@@H]1NC(=O)[C@H](CCCNC(=N)N)NC(=O)[C@](C)(NC(=O)C(C)C)CCNC(=O)[C@@H](c2ccc(Cl)cc2)NC1=O` [Cpd. No. 100, N-((3R,6S,9S,12R)-3-(4-chlorophenyl)-6-ethyl-9-(3-guanidinopropyl)-12-methyl-2,5,8,11-tetraoxo-1,4,7,10-tetraazacyclotetradecan-12-yl)isobutyramide], the 50% inhibitory concentration (IC50) was determined as 2.2 µM.

The assay is the same for the next values; noted with them: Homo sapiens, MOLM-13, 96 h; Table 2A; 4 days treatment; read-out: MOLM-13 IC50.
For the compound `CC[C@@H]1NC(=O)[C@H](CCCNC(=N)N)NC(=O)[C@](C)(NC(=O)C(C)C)CCNC(=O)[C@@H](Cc2ccccc2)NC1=O` [Cpd. No. 54, N-((3R,6S,9S,12R)-3-benzyl-6-ethyl-9-(3-guanidinopropyl)-12-methyl-2,5,8,11-tetraoxo-1,4,7,10-tetraazacyclotetradecan-12-yl)isobutyramide] (Isobutyryl-[dαMeDab]R[Abu][dF]; lactam 1-C), the IC50 amounted to 1.57 µM.

For the compound `CC[C@H](C)[C@@H]1NC(=O)[C@H](CCCNC(=N)N)NC(=O)[C@](C)(NC(=O)C(C)C)CCNC(=O)[C@@H](c2ccccc2)NC1=O` [Cpd. No. 90, N-((3R,6S,9S,12R)-6-((S)-sec-butyl)-9-(3-guanidinopropyl)-12-methyl-2,5,8,11-tetraoxo-3-phenyl-1,4,7,10-tetraazacyclotetradecan-12-yl)isobutyramide] (Isobutyryl-[dαMeDab]RI[dPhg]; lactam 1-C), the IC50 was over 10 µM.

Another assay deals with T1, WDR5 (Homo sapiens, UniProt P61964).
T1 construct: N-terminal His-tagged WDR5 protein (residues 24-334), named WDR5Δ23; made in house; host or cells: E. coli Rosetta 2 (DE3)
The experiment in a line: fluorescence polarization (FP) based competitive binding assay to WDR5 protein.
Conditions: not given
(Fluorescence polarisation rises when a labelled molecule tumbles more slowly, as on binding a larger partner.)
For `CC[C@@H]1NC(=O)[C@H](CCCNC(=N)N)NC(=O)[C@](C)(NC(=O)C(C)C)CCCCN(C)C(=O)[C@@H](c2ccccc2)NC1=O` [Cpd. No. 65, N-((3R,6S,9S,12R)-6-ethyl-9-(3-guanidinopropyl)-1,12-dimethyl-2,5,8,11-tetraoxo-3-phenyl-1,4,7,10-tetraazacyclohexadecan-12-yl)isobutyramide] (Isobutyryl-[dαMeLys(Me)]R[Abu][dPhg]; lactam 1-C), the IC50 came to 1.6 ± 0.3 nM and the Ki is under 1 nM.

Compound `CC[C@@H]1NC(=O)[C@H](CCCNC(=N)N)NC(=O)[C@](C)(NC(=O)C(C)C)CCCCN(C)C(=O)[C@@H](c2ccc(Cl)cc2)NC1=O` [Cpd. No. 67, N-((3R,6S,9S,12R)-3-(4-chlorophenyl)-6-ethyl-9-(3-guanidinopropyl)-1,12-dimethyl-2,5,8,11-tetraoxo-1,4,7,10-tetraazacyclohexadecan-12-yl)isobutyramide] came in with an IC50 of 1.5 ± 0.9 nM and a Ki of under 1 nM.

Still in this assay, the particulars now being: calculated from IC50 by published equation; read-out: Binding Affinity to WDR5 Ki ± SD.
Take `CC[C@@H]1NC(=O)[C@H](CCCNC(=N)N)NC(=O)[C@H](NC(=O)C(C)C)CNC(=O)[C@@H](c2ccccc2)NC1=O` [Cpd. No. 71, N-((3R,6S,9S,12R)-6-ethyl-9-(3-guanidinopropyl)-2,5,8,11-tetraoxo-3-phenyl-1,4,7,10-tetraazacyclotridecan-12-yl)isobutyramide] (Isobutyryl-[dDap]R[Abu][dPhg]; lactam 1-C): the Ki was 242 ± 33 nM.

The same assay, now with this note: read-out: Binding Affinity to WDR5 IC50 ± SD.
Turning to `CC[C@@H]1NC(=O)[C@H](CCCNC(=N)N)NC(=O)[C@H](NC(=O)C(C)C)CNC(=O)[C@@H](c2ccccc2)NC1=O` [Cpd. No. 71, N-((3R,6S,9S,12R)-6-ethyl-9-(3-guanidinopropyl)-2,5,8,11-tetraoxo-3-phenyl-1,4,7,10-tetraazacyclotridecan-12-yl)isobutyramide] (Isobutyryl-[dDap]R[Abu][dPhg]; lactam 1-C), the IC50 was 1190 ± 160 nM.

Values taken from patent US20210130401A1, “PEPTIDOMIMETIC INHIBITORS OF THE WDR5-MLL INTERACTION” (THE REGENTS OF THE UNIVERSITY OF MICHIGAN, priority 2017, published 2021).
